# According to ChEMBL document CHEMBL6078684, “Discovery of a Novel Non-invasive AR PROTAC Degrader for the Topical Treatment of Androgenetic Alopecia” (J Med Chem, 2024):
# Activity calls are given as the source filed them. The rule behind the calls is not given here.
# Experiments:
# [1] = Drug uptake in male Sprague-Dawley rat Dorsal skin assessed as retention rat at 1 mg/ml, TOP measured after 30 mins by LC-MS/MS analysis; type: ADME, tissue-based, Zone of skin; settings: in vivo, topical_or_ocular, 0.5 h
# [2] = target: Protein cereblon/Androgen receptor (Homo sapiens, UniProt P10275+Q96SW2); assay: PROTAC activity at CRBN/AR in human dermal papilla cell assessed as induction of AR degradation measured after 24 to 72 hrs by Western blot analysis; type: cell-based
# [3] = system: Human dermal papilla cell; assay: Upregulation of beta-catenin level in human dermal papilla cells at 1 uM preincubated with testosterone for 24 hrs followed by compound addition and measured after 48 hrs by Western blot analysis; type: functional, cell-based
# [4] = Inhibition of TGF-beta1 release in human dermal papilla cells assessed as TGF-beta1 concentration at 1 uM preincubated with testosterone for 24 hrs followed by compound addition and measured after 48 hrs by ELISA; type: functional, Human dermal papilla cell
# [5] = system: Human dermal papilla cell; assay: Downregulation of TGF-beta1 expression level in human dermal papilla cells at 1 uM preincubated with testosterone for 24 hrs followed by compound addition and measured after 48 hrs by Western blot analysis; type: functional, cell-based
# [6] = system: Human dermal papilla cell; assay: Downregulation of AR protein expression in human dermal papilla cells at 1 uM preincubated with testosterone for 24 hrs followed by compound addition and measured after 48 hrs by Western blot analysis; type: functional, cell-based
# Mus musculus [7] = assay: In vivo induction of AR degradation in testosterone induced male C57BL/6 mouse androgenetic alopecia model assessed as decrease in AR protein level in skin at […] TOP administered once daily for 14 days with co-administration of 0.2% testosterone for 28 days by Western blot analysis; type: functional, organism-based; settings: time 14.0 day
# Mus musculus [8] = assay: Hair regeneration efficacy in testosterone induced male C57BL/6 mouse androgenetic alopecia model at 5 %, TOP administered once daily for 14 days and measured after 21 days with co-administration of 0.2% testosterone for 28 days by photographic analysis; type: functional, organism-based; settings: time 21.0 day
# Mus musculus [9] = assay: Hair regeneration efficacy in testosterone induced male C57BL/6 mouse androgenetic alopecia model assessed as entry of hair follicles to anagen phase by measuring high density of enlarged hair bulbs in subcutaneous tissue at 5 %, TOP administered once daily for 14 days with co-administration of 0.2% testosterone for 28 days by H and E staining based analysis; type: functional, organism-based; settings: time 14.0 day
# Mus musculus [10] = assay: Hair regeneration efficacy in testosterone induced male C57BL/6 mouse androgenetic alopecia model earlier pigmentation at 5 %, TOP administered once daily for 14 days and measured after 21 days with co-administration of 0.2% testosterone for 28 days by photographic analysis; type: functional, organism-based; settings: time 14.0 day
# Mus musculus [11] = assay: Hair regeneration efficacy in testosterone induced male C57BL/6 mouse androgenetic alopecia model assessed as increase in hair cycle score at 5 %, TOP administered once daily for 14 days with co-administration of 0.2% testosterone for 28 days; type: functional, organism-based; settings: time 14.0 day
# Mus musculus [12] = assay: Hair regeneration efficacy in testosterone induced male C57BL/6 mouse androgenetic alopecia model assessed as generation of thick hair with intact scales at 5 %, TOP administered once daily for 14 days with co-administration of 0.2% testosterone and measured after 28 days by SEM analysis; type: functional, organism-based; settings: time 28.0 day
# Mus musculus [13] = assay: Hair regeneration efficacy in testosterone induced male C57BL/6 mouse androgenetic alopecia model assessed as increase in Ki67 expression in skin at 5 % TOP administered once daily for 14 days with co-administration of 0.2% testosterone for 28 days by DAPI staining based immunofluorescence analysis; type: functional, organism-based; settings: time 14.0 day
# Mus musculus [14] = assay: Hair regeneration efficacy in testosterone induced male C57BL/6 mouse androgenetic alopecia model assessed as well formed stratum corneum in hair at 5 %, TOP administered once daily for 14 days with co-administration of 0.2% testosterone and measured after 28 days by SEM analysis; type: functional, organism-based; settings: time 28.0 day
# Protein cereblon/Androgen receptor, sequence (P10275 whole entry): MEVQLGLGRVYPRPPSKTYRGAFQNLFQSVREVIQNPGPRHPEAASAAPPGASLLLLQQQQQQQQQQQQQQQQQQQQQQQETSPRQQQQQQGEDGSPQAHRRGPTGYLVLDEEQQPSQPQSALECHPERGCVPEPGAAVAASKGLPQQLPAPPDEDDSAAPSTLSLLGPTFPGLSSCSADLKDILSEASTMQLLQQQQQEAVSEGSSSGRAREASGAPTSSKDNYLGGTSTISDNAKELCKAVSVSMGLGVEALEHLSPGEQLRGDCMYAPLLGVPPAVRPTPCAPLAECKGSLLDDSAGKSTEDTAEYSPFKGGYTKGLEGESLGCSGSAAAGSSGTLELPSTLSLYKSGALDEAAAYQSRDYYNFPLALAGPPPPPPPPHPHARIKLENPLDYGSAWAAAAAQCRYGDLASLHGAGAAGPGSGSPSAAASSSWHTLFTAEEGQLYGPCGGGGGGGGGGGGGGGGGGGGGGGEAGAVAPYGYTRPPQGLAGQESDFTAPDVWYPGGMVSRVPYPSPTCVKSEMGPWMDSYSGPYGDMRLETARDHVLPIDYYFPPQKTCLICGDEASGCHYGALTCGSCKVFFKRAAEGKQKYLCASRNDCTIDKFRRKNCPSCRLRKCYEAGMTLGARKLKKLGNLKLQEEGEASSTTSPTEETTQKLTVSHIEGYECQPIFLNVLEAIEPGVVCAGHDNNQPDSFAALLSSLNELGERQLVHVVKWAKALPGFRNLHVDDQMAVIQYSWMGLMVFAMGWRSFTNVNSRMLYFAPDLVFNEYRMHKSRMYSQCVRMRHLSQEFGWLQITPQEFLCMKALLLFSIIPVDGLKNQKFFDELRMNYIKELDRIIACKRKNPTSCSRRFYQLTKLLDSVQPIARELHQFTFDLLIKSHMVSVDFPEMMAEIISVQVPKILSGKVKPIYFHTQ
# Protein cereblon/Androgen receptor, sequence (Q96SW2 whole entry): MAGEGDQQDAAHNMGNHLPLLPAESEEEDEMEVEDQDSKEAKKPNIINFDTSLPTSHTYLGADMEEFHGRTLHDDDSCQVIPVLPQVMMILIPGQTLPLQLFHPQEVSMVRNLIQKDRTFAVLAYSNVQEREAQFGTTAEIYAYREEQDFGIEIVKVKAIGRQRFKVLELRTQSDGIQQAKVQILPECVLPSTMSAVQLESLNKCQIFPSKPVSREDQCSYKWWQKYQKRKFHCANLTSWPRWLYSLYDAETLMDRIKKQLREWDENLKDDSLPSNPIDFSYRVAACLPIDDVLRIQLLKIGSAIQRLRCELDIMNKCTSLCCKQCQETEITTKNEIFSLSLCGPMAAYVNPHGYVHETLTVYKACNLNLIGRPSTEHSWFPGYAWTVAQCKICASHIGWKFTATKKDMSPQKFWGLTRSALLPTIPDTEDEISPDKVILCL
Drug uptake [1] [%],DC50 [2] [nM],Compound,other results
5.75,,O=C1CCC(N2C(=O)c3ccc(N4CCCC(CN5CCC(c6ccc(C(F)(F)F)cc6)CC5)C4)cc3C2=O)C(=O)N1 (stereo not given),
2.22,,O=C1CCC(N2C(=O)c3cc(F)c(N4CC(CN5CCC(c6ccc(C(F)(F)F)cc6)CC5)C4)cc3C2=O)C(=O)N1 (stereo not given),
0.74,> 1000,N#Cc1ccc(O[C@H]2CC[C@H](NC(=O)c3ccc(N4CCN(CC5CCN(c6ccc7c(c6)C(=O)N(C6CCC(=O)NC6=O)C7=O)C5)CC4)cc3)CC2)cc1Cl (stereo not given in full),
2.48,,O=C1CCC(N2Cc3cc(C#CCN4CCN(c5ccc(C(F)(F)F)cc5)CC4)ccc3C2=O)C(=O)N1 (stereo not given),
1.41,> 1000,N#Cc1ccc(O[C@H]2CC[C@H](NC(=O)c3ccc(N4CCN(C5CN(c6ccc7c(c6)C(=O)N(C6CCC(=O)NC6=O)C7=O)C5)CC4)cc3)CC2)cc1Cl (stereo not given in full),
0.69,,N#Cc1ccc(O[C@H]2CC[C@H](NC(=O)c3ccc(N4CCN(CC5CCN(c6ccc7c(c6)C(=O)N(C6CCC(=O)NC6=O)C7=O)CC5)CC4)cc3)CC2)cc1Cl (stereo not given in full),
8.73,,O=C1CCC(N2C(=O)c3ccc(N4CCN(CC5CCN(c6ccc(C(F)(F)F)cc6)CC5)CC4)cc3C2=O)C(=O)N1 (stereo not given),
1.86,> 1000,N#Cc1ccc(O[C@H]2CC[C@H](NC(=O)c3ccc(N4CCN(CC5CCN(c6ccc(C(=O)NC7CCC(=O)NC7=O)cc6)C5)CC4)cc3)CC2)cc1Cl (stereo not given in full),
1.49,> 1000,N#Cc1ccc(O[C@H]2CC[C@H](NC(=O)c3ccc(CCCCN4CCN(c5ccc(C(=O)NC6CCC(=O)NC6=O)cc5)CC4)cc3)CC2)cc1Cl (stereo not given in full),
0.68,,O=C1CCC(N2C(=O)c3ccc(N4CCC(CN5CCN(c6ccc(C(F)(F)F)cc6)CC5)C4)cc3C2=O)C(=O)N1 (stereo not given),
0.62,207,N#Cc1ccc(O[C@H]2CC[C@H](NC(=O)c3ccc(N4CCC(CN5CCN(c6ccc7c(c6)C(=O)N(C6CCC(=O)NC6=O)C7=O)CC5)CC4)cc3)CC2)cc1Cl (stereo not given in full),
4.99,,O=C1CCC(NC(=O)c2ccc(N3CCN(CC4CCN(c5ccc(F)cc5)CC4)CC3)cc2)C(=O)N1 (stereo not given),
8.45,,O=C1CCC(N2C(=O)c3ccc(N4CC(CN5CCC(c6ccc(C(F)(F)F)cc6)CC5)C4)cc3C2=O)C(=O)N1 (stereo not given),
0.6,> 1000,N#Cc1ccc(O[C@H]2CC[C@H](NC(=O)c3ccc(C4CCN(CC5CN(c6ccc7c(c6)C(=O)N(C6CCC(=O)NC6=O)C7=O)C5)CC4)cc3)CC2)cc1Cl (stereo not given in full),
,,CNC(=O)c1ccc(N2C(=S)N(c3ccc(C#N)c(C(F)(F)F)c3)C(=O)C2(C)C)cc1F [ENZALUTAMIDE],Activity [3]: Active; Activity [4]: 1195 pg/mL; Activity [5]: Active; Activity [6]: inactive
0.81,> 1000,N#Cc1ccc(O[C@H]2CC[C@H](NC(=O)c3ccc(N4CCC(CN5CCN(c6ccc(C(=O)NC7CCC(=O)NC7=O)cc6)CC5)CC4)cc3)CC2)cc1Cl (stereo not given in full),
1.94,,O=C1CCC(N2C(=O)c3ccc(N4CCC(CN5CCC(c6ccc(C(F)(F)F)cc6)CC5)C4)cc3C2=O)C(=O)N1 (stereo not given),
9.12,,O=C1CCC(NC(=O)c2ccc(N3CCN(C4CCN(c5ccc(F)cc5)CC4)CC3)cc2)C(=O)N1 (stereo not given),
1,> 1000,N#Cc1ccc(O[C@H]2CC[C@H](NC(=O)c3ccc(N4CCC(CCN5CCN(c6ccc(C(=O)NC7CCC(=O)NC7=O)cc6)CC5)CC4)cc3)CC2)cc1Cl (stereo not given in full),
0.96,,O=C1CCC(N2C(=O)c3cccc(N4CCC(CN5CCN(c6ccc(C(F)(F)F)cc6)CC5)C4)c3C2=O)C(=O)N1 (stereo not given),
1.91,,O=C1CCC(N2Cc3c(OCC#CCN4CCN(CC#Cc5ccc(C(F)(F)F)cc5)CC4)cccc3C2=O)C(=O)N1 (stereo not given),
3.92,,O=C1CCC(NC(=O)c2ccc(N3CCN(CCC4CCN(c5ccc(F)cc5)CC4)CC3)cc2)C(=O)N1 (stereo not given),
,,Nc1cc(N2CCCCC2)nc(N)[n+]1[O-] [MINOXIDIL],Activity [3]: Active; Activity (Mus musculus [7]): inactive; Activity (Mus musculus [8]): Active; Activity (Mus musculus [9]): Active; Activity (Mus musculus [10]): Active; Activity (Mus musculus [11]): Active; Activity [4]: 952.22 pg/mL; Activity (Mus musculus [12]): Active; Activity (Mus musculus [13]): Active; Activity [5]: Active; Activity [6]: inactive; Activity (Mus musculus [14]): Active
1.23,70.9,N#Cc1ccc(O[C@H]2CC[C@H](NC(=O)c3ccc(C4CCN(CC5CN(c6ccc(C(=O)NC7CCC(=O)NC7=O)cc6)C5)CC4)cc3)CC2)cc1Cl (stereo not given in full),
0.58,> 1000,N#Cc1ccc(O[C@H]2CC[C@H](NC(=O)c3ccc(C4CCN(CC5CCCN(c6ccc7c(c6)C(=O)N(C6CCC(=O)NC6=O)C7=O)C5)CC4)cc3)CC2)cc1Cl (stereo not given in full),
5.84,,O=C1CCC(N2C(=O)c3ccc(N4CC(N5CCN(c6ccc(C(F)(F)F)cc6)CC5)C4)cc3C2=O)C(=O)N1 (stereo not given),
5.41,,O=C1CCC(N2Cc3cc(OCC#CCN4CCN(CC#Cc5ccc(C(F)(F)F)cc5)CC4)ccc3C2=O)C(=O)N1 (stereo not given),
4.34,,O=C1CCC(N2C(=O)c3cccc(NC4CCN(CC5CCN(c6ccc(C(F)(F)F)cc6)CC5)CC4)c3C2=O)C(=O)N1 (stereo not given),
1.31,104,N#Cc1ccc(O[C@H]2CC[C@H](NC(=O)c3ccc(N4CCC(N5CCN(c6ccc(C(=O)NC7CCC(=O)NC7=O)cc6)CC5)CC4)cc3)CC2)cc1Cl (stereo not given in full),
6.93,,O=C1CCC(NC(=O)c2ccc(N3CCN(CCCCc4ccc(F)cc4)CC3)cc2)C(=O)N1 (stereo not given),
